Experimental data as given in patent publication US6908935B2, “Calcium receptor modulating agents” (Amgen Inc., priority 2002, dated 2005).

target: T1, human parathyroid cell Ca^2+ receptor (hPCaR) (Homo sapiens, UniProt P41180); test: [Ca2+]i measurement with fluo-3 in HEK 293 4.0-7 cells stably transfected with hPCaR; assay type: cell-based; conditions: fluo-3 fluorescence (485/530 nm), effect on [Ca^2+]i
T1 construct: expressed in transfected cells
T1 sequence (P41180 20-1078): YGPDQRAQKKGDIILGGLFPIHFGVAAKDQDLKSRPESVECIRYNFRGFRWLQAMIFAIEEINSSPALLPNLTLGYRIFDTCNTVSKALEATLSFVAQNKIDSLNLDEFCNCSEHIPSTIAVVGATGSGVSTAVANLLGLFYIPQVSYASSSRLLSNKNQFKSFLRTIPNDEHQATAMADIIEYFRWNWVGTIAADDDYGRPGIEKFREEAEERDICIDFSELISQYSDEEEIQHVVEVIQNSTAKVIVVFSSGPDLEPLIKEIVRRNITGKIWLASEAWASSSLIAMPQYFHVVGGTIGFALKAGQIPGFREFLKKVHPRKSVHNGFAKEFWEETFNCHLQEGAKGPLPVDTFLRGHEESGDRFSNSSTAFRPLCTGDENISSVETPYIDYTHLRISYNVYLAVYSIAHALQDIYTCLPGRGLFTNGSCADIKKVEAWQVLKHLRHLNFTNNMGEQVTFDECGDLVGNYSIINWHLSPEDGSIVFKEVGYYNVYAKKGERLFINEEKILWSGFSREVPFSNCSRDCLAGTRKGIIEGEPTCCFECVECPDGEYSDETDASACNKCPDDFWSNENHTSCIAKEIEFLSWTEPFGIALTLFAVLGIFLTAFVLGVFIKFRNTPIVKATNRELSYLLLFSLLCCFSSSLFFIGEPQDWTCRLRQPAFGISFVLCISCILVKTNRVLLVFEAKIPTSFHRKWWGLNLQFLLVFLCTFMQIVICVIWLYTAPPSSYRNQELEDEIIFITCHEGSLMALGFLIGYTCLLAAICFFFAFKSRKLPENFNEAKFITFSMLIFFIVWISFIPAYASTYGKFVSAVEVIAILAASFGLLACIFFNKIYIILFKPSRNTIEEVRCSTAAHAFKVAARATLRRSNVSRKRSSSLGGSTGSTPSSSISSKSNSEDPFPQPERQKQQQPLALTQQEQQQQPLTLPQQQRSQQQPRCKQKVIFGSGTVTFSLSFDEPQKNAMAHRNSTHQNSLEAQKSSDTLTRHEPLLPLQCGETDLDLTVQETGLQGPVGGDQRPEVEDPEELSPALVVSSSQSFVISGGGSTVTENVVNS
How it was run: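 Cytosolic [Ca2+] was read as fluo-3 fluorescence (ex 485/em 530 nm) after compound addition to washed cells. Cells were hPCaR-transfected HEK 293 clone 7, dye-loaded 30 min at 37 °C with 2 μM fluo-3 acetoxymethyl ester in HEPES-buffered saline pH 7.45 containing 1 mM CaCl2 and 0.5% BSA.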

SMILES	EC50 [µM]
COc1ccc(CN[C@H](C)c2ccccc2)cc1-c1ccc(OC(F)(F)F)cc1 [(1R)-N-((6-(methyloxy)-4′-((trifluoromethyl)oxy)-1,1′-biphenyl-3-yl)methyl)-1-phenylethanamine]	≤ 10
COc1ccc(CN[C@H](C)c2ccccc2)cc1-c1ccc2c(ccn2CC(N)=O)c1 [2-(5-(2-(methyloxy)-5-((((1R)-1-phenylethyl)amino)methyl)phenyl)-1H-indol-1-yl)acetamide]	≤ 10
C[C@@H](NCc1ccc(N2CCCC2)cc1)c1ccccc1 [(1R)-1-phenyl-N-((4-(1-pyrrolidinyl)phenyl)methyl)ethanamine]	≤ 10
COc1ccc(CN[C@H](C)c2ccccc2)cc1-c1cncnc1 [(1R)-N-((4-(methyloxy)-3-(5-pyrimidinyl)phenyl)methyl)-1-phenylethanamine]	≤ 10
COc1cccc([C@@H](C)NCc2ccc(OC)c(-c3ccc(OC)nn3)c2)c1 [(1R)-N-((4-(methyloxy)-3-(6-(methyloxy)-3-pyridazinyl)phenyl)methyl)-1-(3-(methyloxy)phenyl)ethanamine]	≤ 10
C[C@@H](NCc1cccc(-c2ccoc2)c1)c1ccccc1 [Example 226, (1R)-N-((3-(3-furanyl)phenyl)methyl)-1-phenylethanamine]	≤ 10
C[C@@H](NCc1ccc(Cl)c(-c2ccc(C(F)(F)F)cc2)c1)c1ccccc1 [(1R)-N-((6-chloro-4′-(trifluoromethyl)-1,1′-biphenyl-3-yl)methyl)-1-phenylethanamine]	≤ 10
COc1ccc(CN[C@H](C)c2ccccc2)cc1-c1ccc2c(c1)ncn2C [(1R)-N-((3-(1-methyl-1H-benzimidazol-5-yl)-4-(methyloxy)phenyl)methyl)-1-phenylethanamine]	≤ 10
COc1cccc([C@@H](C)NCc2ccc(OC)c(-c3ccc(C(F)(F)F)nc3)c2)c1 [(1R)-1-(3-(methyloxy)phenyl)-N-((4-(methyloxy)-3-(6-(trifluoromethyl)-3-pyridinyl)phenyl)methyl)ethanamine]	≤ 10
COc1ccc(CN[C@H](C)c2ccccc2)cc1-c1cccc(OC(F)(F)F)c1 [(1R)-N-((6-(methyloxy)-3′-((trifluoromethyl)oxy)-1,1′-biphenyl-3-yl)methyl)-1-phenylethanamine]	≤ 10

Second part, the compound after the results:

EC50 [µM]	SMILES
≤ 10	COc1ccc(CN[C@H](C)c2cccc3ccccc23)cc1-c1csc2ccccc12 [(1R)-N-((3-(1-benzothien-3-yl)-4-(methyloxy)phenyl)methyl)-1-(1-naphthalenyl)ethanamine]
≤ 10	CCOC(=O)c1ccc(-c2cc(CN[C@H](C)c3ccccc3)ccc2OC)cc1 [ethyl 2′-(methyloxy)-5′-((((1R)-1-phenylethyl)amino)methyl)-1,1′-biphenyl-4-carboxylate]
≤ 10	C[C@@H](NCc1cccc(-c2ccccn2)c1)c1cccc2ccccc12 [(1R)-1-(1-naphthalenyl)-N-((3-(2-pyridinyl)phenyl)methyl)ethanamine]
≤ 10	C[C@@H](NCc1cccc(-c2nccs2)c1)c1cccc2ccccc12 [Example 217, (1R)-1-(1-naphthalenyl)-N-((3-(1,3-thiazol-2-yl)phenyl)methyl)ethanamine]
≤ 10	COc1ccc(-c2cc(CN[C@H](C)c3cccc4ccccc34)ccc2OC)cn1 [(1R)-N-((4-(methyloxy)-3-(6-(methyloxy)-3-pyridinyl)phenyl)methyl)-1-(1-naphthalenyl)ethanamine]
≤ 10	COc1ccc(CN[C@H](C)c2cccc3ccccc23)cc1-c1csc(C)n1 [(1R)-N-((4-(methyloxy)-3-(2-methyl-1,3-thiazol-4-yl)phenyl)methyl)-1-(1-naphthalenyl)ethanamine]
≤ 10	COc1ccc(CN[C@H](C)c2cccc3ccccc23)cc1-c1ccc(C(=O)N(C)C)cc1 [N,N-dimethyl-2′-(methyloxy)-5′-((((1R)-1-(1-naphthalenyl)ethyl)amino)methyl)-1,1′-biphenyl-4-carboxamide]
